# Test results published in PubChem BioAssay (NCI).
#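 Five concentrations, 48 hours, 96-well plates. At the GI50, growth is halved. The concentration for full growth arrest is given as TGI.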
# What was measured:
# Assay in all cases: inhibition of tumour cell growth, NCI panel, 48 h
# 786-0 renal = test system: 786-0 renal
# A498 renal = test system: A498 renal
# A549 NSCLC = test system: A549 NSCLC
# ACHN renal = test system: ACHN renal
# BT-549 breast = test system: BT-549 breast
# CAKI-1 renal = test system: CAKI-1 renal
# CCRF-CEM leukemia = test system: CCRF-CEM leukemia
# COLO 205 colon = test system: COLO 205 colon
# DU-145 prostate = test system: DU-145 prostate
# EKVX NSCLC = test system: EKVX NSCLC
# HCC-2998 colon = test system: HCC-2998 colon
# HCT-116 colon = test system: HCT-116 colon
# HCT-15 colon = test system: HCT-15 colon
# HL-60(TB) leukemia = test system: HL-60(TB) leukemia
# HOP-62 NSCLC = test system: HOP-62 NSCLC
# HOP-92 NSCLC = test system: HOP-92 NSCLC
# HS 578T breast = test system: HS 578T breast
# HT29 colon = test system: HT29 colon
# IGROV1 ovarian = test system: IGROV1 ovarian
# K-562 leukemia = test system: K-562 leukemia
# KM12 colon = test system: KM12 colon
# LOX IMVI melanoma = test system: LOX IMVI melanoma
# M14 melanoma = test system: M14 melanoma
# MALME-3M melanoma = test system: MALME-3M melanoma
# MCF7 breast = test system: MCF7 breast
# MDA-MB-231 breast = test system: MDA-MB-231 breast
# MDA-MB-435 = test system: MDA-MB-435
# MOLT-4 leukemia = test system: MOLT-4 leukemia
# NCI-H226 lung = test system: NCI-H226 lung
# NCI-H23 lung = test system: NCI-H23 lung
# NCI-H460 lung = test system: NCI-H460 lung
# NCI-H522 lung = test system: NCI-H522 lung
# NCI/ADR-RES ovarian = test system: NCI/ADR-RES ovarian
# OVCAR-3 ovarian = test system: OVCAR-3 ovarian
# OVCAR-4 ovarian = test system: OVCAR-4 ovarian
# OVCAR-5 ovarian = test system: OVCAR-5 ovarian
# OVCAR-8 ovarian = test system: OVCAR-8 ovarian
# PC-3 prostate = test system: PC-3 prostate
# RPMI-8226 leukemia = test system: RPMI-8226 leukemia
# RXF 393 renal = test system: RXF 393 renal
# SF-268 CNS = test system: SF-268 CNS
# SF-295 CNS = test system: SF-295 CNS
# SF-539 CNS = test system: SF-539 CNS
# SK-MEL-2 melanoma = test system: SK-MEL-2 melanoma
# SK-MEL-28 melanoma = test system: SK-MEL-28 melanoma
# SK-MEL-5 melanoma = test system: SK-MEL-5 melanoma
# SK-OV-3 ovarian = test system: SK-OV-3 ovarian
# SN12C renal = test system: SN12C renal
# SNB-19 CNS = test system: SNB-19 CNS
# SNB-75 CNS = test system: SNB-75 CNS
# SR leukemia = test system: SR leukemia
# SW-620 colon = test system: SW-620 colon
# T-47D breast = test system: T-47D breast
# TK-10 renal = test system: TK-10 renal
# U251 CNS = test system: U251 CNS
# UACC-257 melanoma = test system: UACC-257 melanoma
# UACC-62 melanoma = test system: UACC-62 melanoma
# UO-31 renal = test system: UO-31 renal
structure (smiles),measurement,setting,value
Cc1ccc2c(n1)C(=O)C(Cl)=C(Nc1ccc(C(F)(F)F)cc1)C2=O,GI50,786-0 renal,1.84 µM
same,TGI,786-0 renal,3.7 µM
same,GI50,A498 renal,40.2 µM
same,TGI,A498 renal,> 100 µM
same,GI50,A549 NSCLC,> 100 µM
same,TGI,A549 NSCLC,> 100 µM
same,GI50,ACHN renal,1.82 µM
same,TGI,ACHN renal,3.42 µM
same,GI50,BT-549 breast,1.78 µM
same,TGI,BT-549 breast,3.33 µM
same,GI50,CAKI-1 renal,1.53 µM
same,TGI,CAKI-1 renal,3.01 µM
same,GI50,CCRF-CEM leukemia,0.879 µM
same,TGI,CCRF-CEM leukemia,3.89 µM
same,GI50,COLO 205 colon,2.21 µM
same,TGI,COLO 205 colon,4.83 µM
same,GI50,DU-145 prostate,1.87 µM
same,TGI,DU-145 prostate,3.41 µM
same,GI50,EKVX NSCLC,1.68 µM
same,TGI,EKVX NSCLC,3.98 µM
same,GI50,HCC-2998 colon,3.14 µM
same,TGI,HCC-2998 colon,9.98 µM
same,GI50,HCT-116 colon,0.569 µM
same,TGI,HCT-116 colon,2.02 µM
same,GI50,HCT-15 colon,1.36 µM
same,TGI,HCT-15 colon,3.13 µM
same,GI50,HL-60(TB) leukemia,1.4 µM
same,TGI,HL-60(TB) leukemia,3.76 µM
same,GI50,HOP-62 NSCLC,> 100 µM
same,TGI,HOP-62 NSCLC,> 100 µM
same,GI50,HOP-92 NSCLC,1.49 µM
same,TGI,HOP-92 NSCLC,3.19 µM
same,GI50,HS 578T breast,5.46 µM
same,TGI,HS 578T breast,59.7 µM
same,GI50,HT29 colon,2.81 µM
same,TGI,HT29 colon,7.43 µM
same,GI50,IGROV1 ovarian,1.82 µM
same,TGI,IGROV1 ovarian,4.04 µM
same,GI50,K-562 leukemia,0.291 µM
same,TGI,K-562 leukemia,2.23 µM
same,GI50,KM12 colon,70.3 µM
same,TGI,KM12 colon,> 100 µM
same,GI50,LOX IMVI melanoma,1.22 µM
same,TGI,LOX IMVI melanoma,3.04 µM
same,GI50,M14 melanoma,1.74 µM
same,TGI,M14 melanoma,3.36 µM
same,GI50,MALME-3M melanoma,1.9 µM
same,TGI,MALME-3M melanoma,3.78 µM
same,GI50,MCF7 breast,1.95 µM
same,TGI,MCF7 breast,5.03 µM
same,GI50,MDA-MB-231 breast,1.84 µM
same,TGI,MDA-MB-231 breast,4.63 µM
same,GI50,MDA-MB-435,2.12 µM
same,TGI,MDA-MB-435,4.49 µM
same,GI50,MOLT-4 leukemia,0.347 µM
same,TGI,MOLT-4 leukemia,2.99 µM
same,GI50,NCI-H226 lung,1.89 µM
same,TGI,NCI-H226 lung,4.72 µM
same,GI50,NCI-H23 lung,2.02 µM
same,TGI,NCI-H23 lung,5.58 µM
same,GI50,NCI-H460 lung,> 100 µM
same,TGI,NCI-H460 lung,> 100 µM
same,GI50,NCI-H522 lung,2 µM
same,TGI,NCI-H522 lung,4.93 µM
same,GI50,NCI/ADR-RES ovarian,2.62 µM
same,TGI,NCI/ADR-RES ovarian,8.06 µM
same,GI50,OVCAR-3 ovarian,1.61 µM
same,TGI,OVCAR-3 ovarian,3.03 µM
same,GI50,OVCAR-4 ovarian,1.69 µM
same,TGI,OVCAR-4 ovarian,4.31 µM
same,GI50,OVCAR-5 ovarian,5.07 µM
same,TGI,OVCAR-5 ovarian,19.8 µM
same,GI50,OVCAR-8 ovarian,3.26 µM
same,TGI,OVCAR-8 ovarian,> 100 µM
same,GI50,PC-3 prostate,3.7 µM
same,TGI,PC-3 prostate,20.7 µM
same,GI50,RPMI-8226 leukemia,2.23 µM
same,TGI,RPMI-8226 leukemia,6.08 µM
same,GI50,RXF 393 renal,1.57 µM
same,TGI,RXF 393 renal,2.95 µM
same,GI50,SF-268 CNS,3.57 µM
same,TGI,SF-268 CNS,16.5 µM
same,GI50,SF-295 CNS,> 100 µM
same,TGI,SF-295 CNS,> 100 µM
same,GI50,SF-539 CNS,1.92 µM
same,TGI,SF-539 CNS,3.95 µM
same,GI50,SK-MEL-2 melanoma,7.2 µM
same,TGI,SK-MEL-2 melanoma,32.8 µM
same,GI50,SK-MEL-28 melanoma,2.06 µM
same,TGI,SK-MEL-28 melanoma,3.85 µM
same,GI50,SK-MEL-5 melanoma,6.03 µM
same,TGI,SK-MEL-5 melanoma,21.2 µM
same,GI50,SK-OV-3 ovarian,> 100 µM
same,TGI,SK-OV-3 ovarian,> 100 µM
same,GI50,SN12C renal,2.31 µM
same,TGI,SN12C renal,6.51 µM
same,GI50,SNB-19 CNS,11.6 µM
same,TGI,SNB-19 CNS,> 100 µM
same,GI50,SNB-75 CNS,> 100 µM
same,TGI,SNB-75 CNS,> 100 µM
same,GI50,SR leukemia,0.367 µM
same,TGI,SR leukemia,2.37 µM
same,GI50,SW-620 colon,1.13 µM
same,TGI,SW-620 colon,3.73 µM
same,GI50,T-47D breast,1.55 µM
same,TGI,T-47D breast,5.06 µM
same,GI50,TK-10 renal,2.28 µM
same,TGI,TK-10 renal,3.75 µM
same,GI50,U251 CNS,4.93 µM
same,TGI,U251 CNS,20.5 µM
same,GI50,UACC-257 melanoma,1.7 µM
same,TGI,UACC-257 melanoma,3.27 µM
same,GI50,UACC-62 melanoma,2.74 µM
same,TGI,UACC-62 melanoma,10.7 µM
same,GI50,UO-31 renal,1.37 µM
same,TGI,UO-31 renal,2.75 µM
